We go through one compound from patent publication US20150306096A1, “8'-HYDROXY-DIHYDROERGOTAMINE COMPOUNDS AND COMPOSITIONS” (MAP Pharmaceuticals, Inc., priority 2012, published 2015).

Common to all, as to assay: Radioligand competition binding and kinetics, CHO-K1 membranes
The target of one test is T1, human 5-HT2B receptor (Homo sapiens, UniProt P41595).
T1 construct: purchased Euroscreen; host or cells: CHO-K1
The conditions noted are these: 5-HT2B. The procedure: (§1) For kinetics of radioligand competitive binding, serial dilutions were performed from master solution in 100% DMSO to obtain intermediate concentrations 200-fold higher than the concentrations to be tested. Each test sample was diluted 100-fold in the assay buffer and dispensed into the test plate.
(§2) Ligand: 5-HT (Sigma, H-9523)
(§3) Determination of the Kon constant. Radioligand association kinetics on each receptor were performed by adding in the wells of a 96 well plate 50 μL of radioligand and 50 μL of membrane extracts. The samples were incubated for the times reported in Table 3 below at a temperature optimized for each receptor and filtered over a filter plate. After washing the filters 5 times with 0.5 mL of ice-cold washing buffer, 50 μL of Microscint 20 (Packard) were added to the filters and the plates were incubated 15 min on an orbital shaker and then counted for 1 min/well. This allowed determination of the kobs for each radioligand. Association kinetics were performed at 5 different radioligand concentrations optimized for each receptor (see Table 3 below) to determine 5 different kobs. The different kobs were then plotted against the [radioligand] and the K. was calculated using the following equation: kon=(kobs−koff)[radioligand].
(§4) Determination of the Koff constant. Radioligand dissociation kinetics on each receptor were performed by adding in the wells of a 96 well plate 45 μL of radioligand and 45 μL of membrane extracts. The samples were incubated as reported in Table 4 below at a temperature optimized for each receptor until binding equilibrium was reached as determined by the association kinetics experiment. Then, 100 μL of cold competitor (reference ligand) were added at a 200 fold excess (final concentration) for the times reported in Table 4 at the optimized temperature. The samples were then filtered over a filter plate. After washing the filters 5 times with 0.5 mL of ice-cold washing buffer, 50 μL of Microscint 20 (Packard) were added to the filters and the plates were incubated 15 min on an orbital shaker and then counted for 1 min/well. This allowed determination of the koff for each radioligand.
(§5) Determination of IC50 and Ki constant for each test compound. […] After washing the filters 5 times with 0.5 mL of ice-cold washing buffer, 50 μL of Microscint 20 (Packard) were added to the filters and the plates were incubated 15 min on an orbital shaker and then counted for 1 min/well. […]
(§6) Determination of kon and koff constants for each test compound. Each compound was first assessed in a pilot experiment to evaluate its effect on the kinetic binding of each receptor-radioligand pair. […]

In another test the target is T2, human 5-HT1A receptor (Homo sapiens, UniProt P08908).
T2 construct: purchased Euroscreen; host or cells: CHO-K1
T2 sequence (P08908 1-422): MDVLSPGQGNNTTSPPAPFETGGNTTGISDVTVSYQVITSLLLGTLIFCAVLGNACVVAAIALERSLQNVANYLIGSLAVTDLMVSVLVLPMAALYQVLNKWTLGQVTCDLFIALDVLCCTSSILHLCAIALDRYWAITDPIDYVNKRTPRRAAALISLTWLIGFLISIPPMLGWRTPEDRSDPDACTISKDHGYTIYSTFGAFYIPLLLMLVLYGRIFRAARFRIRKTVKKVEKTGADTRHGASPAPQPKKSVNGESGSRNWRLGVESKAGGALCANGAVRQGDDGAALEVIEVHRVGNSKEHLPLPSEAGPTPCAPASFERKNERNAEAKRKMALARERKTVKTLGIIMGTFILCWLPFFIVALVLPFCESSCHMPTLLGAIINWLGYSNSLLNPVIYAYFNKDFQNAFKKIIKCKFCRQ
The conditions noted are these: 5-HT1A. The procedure:
as §1
as §3, with “Association kinetics were performed at 5 different radioligand concentrations optimized for each receptor (see Table 3 below) to determine 5 different kobs.” left out
Determination of the Koff constant. […] The samples were incubated as reported in Table 4 below at a temperature optimized for each receptor until binding equilibrium was reached as determined by the association kinetics experiment. […] After washing the filters 5 times with 0.5 mL of ice-cold washing buffer, 50 μL of Microscint 20 (Packard) were added to the filters and the plates were incubated 15 min on an orbital shaker and then counted for 1 min/well. […]
as §5, §6

Another test concerns the target T3, human 5-HT1D receptor (Homo sapiens, UniProt P28221).
T3 construct: purchased Euroscreen; host or cells: CHO-K1
Conditions: 5-HT1D. The procedure:
as §1
5-HT1D Radioligand Binding Assay
Assay buffer: 50 mM Tris (pH 7.4), 4 mM CaCl2, 0.1% ascorbic acid
Washing buffer: 50 mM Tris (pH 7.4)
Membrane: recombinant CHO-K1-5-HT1D membranes thawed on ice and diluted in assay buffer (10 μg/well)
as §2
Radioligand: [^3H]-CT (Perkin Elmer, TRK1038, diluted in assay buffer for a final concentration of 0.5 nM) Filter plate: GF/B Unifilter plate (Perkin Elmer, 6005177) presoaked in 0.5% PEI for 2 hours at RT.
as §3, §4
Determination of IC50 and Ki constant for each test compound. Radioligand competition binding on each receptor were performed by adding in the wells of a 96 well plate […] of test compound at increasing concentration as reported in Table 5 below, 25 μL of radioligand and 25 μL of membrane extracts. The samples were incubated for 60 min (or 4 hours for a second experiment on 5-HT2B receptors) at a temperature optimized for each receptor and then filtered over a filter plate. After washing the filters 5 times with 0.5 mL of ice-cold washing buffer, 50 μL of Microscint 20 (Packard) were added to the filters and the plates were incubated 15 min on an orbital shaker and then counted for 1 min/well. The test compounds were tested in duplicate at the nanomolar concentrations reported below in Table 5.
Determination of kon and koff constants for each test compound. Each compound was first assessed in a pilot experiment to evaluate its effect on the kinetic binding of each receptor-radioligand pair. These pilot experiments were performed at on compound concentration and were composed of 10 time-points measurements in duplicate (2, 5, 10, 20, 30, 45, 60, 90, 120 and 150 minutes).

T1 sequence (P41595 whole entry): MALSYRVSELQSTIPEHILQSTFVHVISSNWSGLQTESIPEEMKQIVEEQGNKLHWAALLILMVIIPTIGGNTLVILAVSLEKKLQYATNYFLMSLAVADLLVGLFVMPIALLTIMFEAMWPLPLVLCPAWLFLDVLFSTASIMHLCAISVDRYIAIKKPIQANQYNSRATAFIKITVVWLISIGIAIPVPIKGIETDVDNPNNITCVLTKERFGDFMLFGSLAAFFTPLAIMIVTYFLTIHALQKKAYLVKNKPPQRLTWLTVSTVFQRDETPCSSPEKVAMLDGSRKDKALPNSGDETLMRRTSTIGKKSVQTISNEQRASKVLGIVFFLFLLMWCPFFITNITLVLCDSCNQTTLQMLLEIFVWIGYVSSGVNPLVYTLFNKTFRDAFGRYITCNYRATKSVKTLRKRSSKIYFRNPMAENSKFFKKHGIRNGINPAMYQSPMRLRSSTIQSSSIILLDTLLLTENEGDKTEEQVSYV
T3 sequence (P28221 whole entry): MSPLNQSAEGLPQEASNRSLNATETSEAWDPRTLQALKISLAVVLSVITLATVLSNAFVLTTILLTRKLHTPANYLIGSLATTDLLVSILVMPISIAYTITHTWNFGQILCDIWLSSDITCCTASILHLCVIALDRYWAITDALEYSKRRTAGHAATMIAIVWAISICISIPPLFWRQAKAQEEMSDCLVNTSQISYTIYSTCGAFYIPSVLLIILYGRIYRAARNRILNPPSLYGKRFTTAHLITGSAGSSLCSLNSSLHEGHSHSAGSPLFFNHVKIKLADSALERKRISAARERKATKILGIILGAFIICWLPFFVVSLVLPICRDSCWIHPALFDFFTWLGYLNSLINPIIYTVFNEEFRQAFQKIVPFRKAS

With `CNS(=O)(=O)Cc1ccc2[nH]cc(CCN(C)C)c2c1` [Sumatriptan, sumatriptan], the “Avg Dissociation half-life” value amounted to 22.2 min at human 5-HT2B receptor, 65.4 min on human 5-HT1A receptor and 5.4 min on human 5-HT1D receptor. In addition, the IC50 at human 5-HT2B receptor ([3H]-Mesulergine, read-out: IC50 from binding assay) came to 19.9 µM.

A word on the IC50: it is the concentration that gives 50% inhibition.
